Measurements as given in ChEMBL document CHEMBL3885861, “Open TG-GATES”.

Species on record: Rattus norvegicus
Experiment: Open TG-GATES - Regimen: Single
Type: toxicity, organism-based, Sprague-Dawley
Design: regimen Single, gender Male, age 6 weeks
Settings: in vivo, po, 300 mg/kg, route gavage, dose level Middle; for APTT / Bas / Eos / Fbg / Hb / Ht / Lym / MCH / MCHC / MCV / Mono / Neu / PT / Plat / RBC / Ret / WBC: tissue Blood; for KIDNEY_L / KIDNEY_R / KIDNEY_TOTAL: tissue Kidney; for LIVER: tissue Liver; for A/G / ALP / ALT / AST / BUN / CRE / Ca / Cl / DBIL / GLC / IP / K / LDH / Na / PL / RALB / TBIL / TC / TG / TP / gamma-GTP: tissue Plasma

Compound `CC(S)C(=O)NCC(=O)O` (configuration not stated) [TIOPRONIN] has a TERMINAL_BW (3 h) of 211.9 g, an APTT (3 h) of 22.7 s and a Bas (3 h) of 0%. The Eos (3 h) was 0.4%, the Fbg (3 h) was 295.4 mg/dL and the Hb (3 h) was 12.8 g/dL. For the same compound, the Ht (3 h) was 39.7%, the Lym (3 h) was 77.8% and the MCH (3 h) was 20.3 pg. For the same compound, the MCHC (3 h) was 32.2%, the MCV (3 h) was 63 fL and the Mono (3 h) was 2.6%. For the same compound, the Neu (3 h) was 18.4%, the PT (3 h) was 16.8 s and the Plat (3 h) was 116 x10_4/uL. It also gave an RBC (3 h) of 631.6 x10_4/ul, a Ret (3 h) of 7.7% and a WBC (3 h) of 76.7 x10_2/uL. For the same compound, the KIDNEY_L (3 h) was 0.9 g, the KIDNEY_R (3 h) was 1 g and the KIDNEY_TOTAL (3 h) was 1.9 g. The LIVER (3 h) was 9.7 g, the A/G (3 h) was 1.2 and the ALP (3 h) was 1446.8 IU/L. For the same compound, the ALT (3 h) was 65.2 IU/L, the AST (3 h) was 83.6 IU/L and the BUN (3 h) was 10.8 mg/dL. It also gave a CRE (3 h) of 0.1 mg/dL, a Ca (3 h) of 10.7 mg/dL and a Cl (3 h) of 106.2 meq/L. The DBIL (3 h) was 0.002 mg/dL, the GLC (3 h) was 194.8 mg/dL and the IP (3 h) was 7.9 mg/dL. It also gave a K (3 h) of 3.9 meq/L, an LDH (3 h) of 169.4 IU/L and a Na (3 h) of 142.2 meq/L. For the same compound, the PL (3 h) was 125.2 mg/dL, the RALB (3 h) was 3 g/dL and the TBIL (3 h) was 0.02 mg/dL. For the same compound, the TC (3 h) was 73.6 mg/dL, the TG (3 h) was 47 mg/dL and the TP (3 h) was 5.4 g/dL. For the same compound, the gamma-GTP (3 h) was 2 IU/L, the TERMINAL_BW (6 h) was 212 g and the APTT (6 h) was 21.2 s. The Bas (6 h) was 0%, the Eos (6 h) was 0.8% and the Fbg (6 h) was 290.4 mg/dL. For the same compound, the Hb (6 h) was 12.6 g/dL, the Ht (6 h) was 38.8% and the Lym (6 h) was 80.4%. For the same compound, the MCH (6 h) was 20.2 pg, the MCHC (6 h) was 32.5% and the MCV (6 h) was 62.2 fL. It also gave a Mono (6 h) of 2.6%, a Neu (6 h) of 15.4% and a PT (6 h) of 16.9 s. For the same compound, the Plat (6 h) was 121.4 x10_4/uL, the RBC (6 h) was 625 x10_4/ul and the Ret (6 h) was 8%. The WBC (6 h) was 77.2 x10_2/uL, the KIDNEY_L (6 h) was 0.9 g and the KIDNEY_R (6 h) was 1 g. The KIDNEY_TOTAL (6 h) was 1.9 g, the LIVER (6 h) was 9.2 g and the A/G (6 h) was 1.2. It also gave an ALP (6 h) of 1527 IU/L, an ALT (6 h) of 58 IU/L and an AST (6 h) of 73 IU/L. The BUN (6 h) was 8.4 mg/dL, the CRE (6 h) was 0.1 mg/dL and the Ca (6 h) was 10.8 mg/dL. It also gave a Cl (6 h) of 107.4 meq/L, a DBIL (6 h) of 0 mg/dL and a GLC (6 h) of 191.6 mg/dL. It also gave an IP (6 h) of 9.6 mg/dL, a K (6 h) of 4.4 meq/L and an LDH (6 h) of 154.2 IU/L. The Na (6 h) was 142.2 meq/L, the PL (6 h) was 117.2 mg/dL and the RALB (6 h) was 2.9 g/dL. It also gave a TBIL (6 h) of 0.022 mg/dL, a TC (6 h) of 67.2 mg/dL and a TG (6 h) of 59.4 mg/dL. The TP (6 h) was 5.3 g/dL, the gamma-GTP (6 h) was 1.8 IU/L and the TERMINAL_BW (9 h) was 208.1 g. For the same compound, the APTT (9 h) was 23.7 s, the Bas (9 h) was 0% and the Eos (9 h) was 0.4%. For the same compound, the Fbg (9 h) was 293.4 mg/dL, the Hb (9 h) was 12.9 g/dL and the Ht (9 h) was 40.3%. The Lym (9 h) was 77.8%, the MCH (9 h) was 20.7 pg and the MCHC (9 h) was 32.1%. For the same compound, the MCV (9 h) was 64.6 fL, the Mono (9 h) was 2.4% and the Neu (9 h) was 18.6%. The PT (9 h) was 16.3 s, the Plat (9 h) was 118 x10_4/uL and the RBC (9 h) was 624 x10_4/ul. For the same compound, the Ret (9 h) was 7.7%, the WBC (9 h) was 77 x10_2/uL and the KIDNEY_L (9 h) was 0.9 g. The KIDNEY_R (9 h) was 1 g, the KIDNEY_TOTAL (9 h) was 1.9 g and the LIVER (9 h) was 8.1 g. It also gave an A/G (9 h) of 1.2, an ALP (9 h) of 1363.8 IU/L and an ALT (9 h) of 52.8 IU/L. For the same compound, the AST (9 h) was 75 IU/L, the BUN (9 h) was 10.6 mg/dL and the CRE (9 h) was 0.1 mg/dL. It also gave a Ca (9 h) of 10.6 mg/dL, a Cl (9 h) of 107.4 meq/L and a DBIL (9 h) of 0.008 mg/dL. The GLC (9 h) was 191.4 mg/dL, the IP (9 h) was 9.8 mg/dL and the K (9 h) was 4.2 meq/L. It also gave an LDH (9 h) of 194.2 IU/L, a Na (9 h) of 143.2 meq/L and a PL (9 h) of 110.6 mg/dL. The RALB (9 h) was 2.8 g/dL, the TBIL (9 h) was 0.02 mg/dL and the TC (9 h) was 63.4 mg/dL. It also gave a TG (9 h) of 42.2 mg/dL, a TP (9 h) of 5.3 g/dL and a gamma-GTP (9 h) of 1.2 IU/L. For the same compound, the TERMINAL_BW (24 h) was 227.3 g, the APTT (24 h) was 21.1 s and the Bas (24 h) was 0%. For the same compound, the Eos (24 h) was 0.8%, the Fbg (24 h) was 312.6 mg/dL and the Hb (24 h) was 12.7 g/dL. It also gave a Ht (24 h) of 38.9%, a Lym (24 h) of 80% and an MCH (24 h) of 20.4 pg. For the same compound, the MCHC (24 h) was 32.7%, the MCV (24 h) was 62.2 fL and the Mono (24 h) was 3%. It also gave a Neu (24 h) of 15%, a PT (24 h) of 16.1 s and a Plat (24 h) of 113.7 x10_4/uL. The RBC (24 h) was 624.6 x10_4/ul, the Ret (24 h) was 7.4% and the WBC (24 h) was 100.8 x10_2/uL. It also gave a KIDNEY_L (24 h) of 1 g, a KIDNEY_R (24 h) of 1 g and a KIDNEY_TOTAL (24 h) of 1.9 g. It also gave an LIVER (24 h) of 10.4 g, an A/G (24 h) of 1.2 and an ALP (24 h) of 1662.2 IU/L. The ALT (24 h) was 41.8 IU/L, the AST (24 h) was 72.4 IU/L and the BUN (24 h) was 14.6 mg/dL. The CRE (24 h) was 0.2 mg/dL, the Ca (24 h) was 10.8 mg/dL and the Cl (24 h) was 106.4 meq/L. It also gave a DBIL (24 h) of 0 mg/dL, a GLC (24 h) of 193.6 mg/dL and an IP (24 h) of 7.6 mg/dL. For the same compound, the K (24 h) was 4.4 meq/L, the LDH (24 h) was 161.6 IU/L and the Na (24 h) was 142.6 meq/L. The PL (24 h) was 143.2 mg/dL, the RALB (24 h) was 3 g/dL and the TBIL (24 h) was 0.018 mg/dL. The TC (24 h) was 81.6 mg/dL, the TG (24 h) was 102.4 mg/dL and the TP (24 h) was 5.6 g/dL. It also gave a gamma-GTP (24 h) of 1.2 IU/L.
